Experimental data from patent publication US20240051985A1, “METTL3 MODULATORS” (ACCENT THERAPEUTICS, INC., priority 2020, published 2024).

Assays:
[1] = molecular target: PRMT5-MEP50 (Homo sapiens, UniProt O14744); assay: PRMT5 assay (3H-SAM flashplate); conditions: PRMT5 biochemical assay
Procedure: Assays were performed in a 25 μl-volume in 384-well V-bottom polypropylene microplates (Greiner Bio-One, cat. No. 781280) at ambient temperature. Optimized 1× assay buffer was 20 mM Tris-HCl pH 8.0, 1 mM DTT, […]. For compound screening PRMT5-MEP50 (final concentration, f.c.=2.5 nM) was added using a Multidrop Combi (ThermoFisher Scientific, Waltham, MA) and preincubated for 5 min. Reactions were started by adding 3′ biotinylated histone H4 peptide acetylated on serine 1 (Ac-[…]-Biotin) (f.c.=100 nM) and 3H-SAM (f.c.=250 nM) substrates. Reactions proceeded for 60 minutes and were quenched with excess non-radioactive SAM (f.c.=15 μM). The reactions were then transferred to streptavidin-coated flashplates and incubated for 2 hours at 25° C. Following two washing cycles with 0.1% Tween-20, the plates were sealed and read on a TopCount (PerkinElmer, Waltham, MA) plate-based scintillation counter. For determination of kinetic parameters, reaction times were optimized so that measurements were taken during the initial velocity phase of the reaction.

[2] = molecular target: METTL3/METTL14 (Homo sapiens, UniProt Q86U44); assay: METTL3-14 standard enzyme assay (3H-SAM flashplate); conditions: METTL3 biochemical assay
METTL3/METTL14, sequence (Q86U44 whole entry, species assumed): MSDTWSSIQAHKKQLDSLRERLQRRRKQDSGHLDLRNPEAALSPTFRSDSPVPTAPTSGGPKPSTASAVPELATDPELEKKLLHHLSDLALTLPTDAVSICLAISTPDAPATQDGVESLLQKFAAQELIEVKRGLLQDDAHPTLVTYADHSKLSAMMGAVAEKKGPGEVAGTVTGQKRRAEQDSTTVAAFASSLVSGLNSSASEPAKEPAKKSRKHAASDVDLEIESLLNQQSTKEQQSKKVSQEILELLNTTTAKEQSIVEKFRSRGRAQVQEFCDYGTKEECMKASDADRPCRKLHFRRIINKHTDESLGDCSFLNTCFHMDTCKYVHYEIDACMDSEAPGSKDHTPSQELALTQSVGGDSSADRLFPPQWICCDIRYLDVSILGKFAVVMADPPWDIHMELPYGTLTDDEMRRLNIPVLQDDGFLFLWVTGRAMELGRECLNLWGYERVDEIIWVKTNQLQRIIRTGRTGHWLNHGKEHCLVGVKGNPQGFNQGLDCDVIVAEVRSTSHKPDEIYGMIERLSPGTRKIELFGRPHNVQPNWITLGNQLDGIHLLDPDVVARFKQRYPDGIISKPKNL
METTL3/METTL14, sequence (Q9HCE5 whole entry partner, species assumed): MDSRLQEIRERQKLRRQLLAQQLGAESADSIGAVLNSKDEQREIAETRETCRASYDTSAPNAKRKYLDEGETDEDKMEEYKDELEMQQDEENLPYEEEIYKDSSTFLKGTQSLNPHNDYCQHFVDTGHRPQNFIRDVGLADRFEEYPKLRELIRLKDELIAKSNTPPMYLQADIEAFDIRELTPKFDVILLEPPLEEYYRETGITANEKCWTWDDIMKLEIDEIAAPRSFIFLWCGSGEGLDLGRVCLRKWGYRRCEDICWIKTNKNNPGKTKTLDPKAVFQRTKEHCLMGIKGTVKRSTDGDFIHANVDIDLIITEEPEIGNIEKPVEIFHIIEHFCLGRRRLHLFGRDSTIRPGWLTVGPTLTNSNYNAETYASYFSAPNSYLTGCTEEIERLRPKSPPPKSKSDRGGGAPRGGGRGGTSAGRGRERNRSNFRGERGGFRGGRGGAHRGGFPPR
Procedure, shortened: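 METTL3/METTL14 (2.5 nM) preincubated 5 min, then reacted with 3′-biotinylated RNA UCUGGACUAAA (100 nM) and 3H-SAM (100 nM) for 30 min at ambient temperature in 20 mM HEPES pH 7.5, 50 mM KCl, 250 μM MgCl2, 1 mM DTT. Quenched with 15 μM cold SAM; product captured on streptavidin flashplates, scintillation counted.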

PRMT5-MEP50, sequence (O14744 whole entry): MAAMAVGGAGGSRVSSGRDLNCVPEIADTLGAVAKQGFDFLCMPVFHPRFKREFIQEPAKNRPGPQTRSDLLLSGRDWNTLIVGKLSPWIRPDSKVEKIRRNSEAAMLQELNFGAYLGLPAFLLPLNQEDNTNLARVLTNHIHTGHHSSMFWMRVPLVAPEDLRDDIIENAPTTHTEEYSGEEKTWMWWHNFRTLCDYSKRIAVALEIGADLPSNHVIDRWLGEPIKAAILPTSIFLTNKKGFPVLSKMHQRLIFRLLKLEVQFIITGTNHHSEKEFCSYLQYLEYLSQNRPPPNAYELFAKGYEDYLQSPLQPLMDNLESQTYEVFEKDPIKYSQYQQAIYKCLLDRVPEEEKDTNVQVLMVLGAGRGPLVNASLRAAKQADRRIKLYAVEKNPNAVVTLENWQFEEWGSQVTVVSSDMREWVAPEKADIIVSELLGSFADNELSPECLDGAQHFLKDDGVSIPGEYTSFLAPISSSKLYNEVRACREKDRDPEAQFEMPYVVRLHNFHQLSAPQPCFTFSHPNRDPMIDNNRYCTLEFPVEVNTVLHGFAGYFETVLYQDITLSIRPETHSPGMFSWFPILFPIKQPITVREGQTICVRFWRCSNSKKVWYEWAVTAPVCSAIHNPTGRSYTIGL
PRMT5-MEP50, sequence (Q9BQA1 whole entry partner): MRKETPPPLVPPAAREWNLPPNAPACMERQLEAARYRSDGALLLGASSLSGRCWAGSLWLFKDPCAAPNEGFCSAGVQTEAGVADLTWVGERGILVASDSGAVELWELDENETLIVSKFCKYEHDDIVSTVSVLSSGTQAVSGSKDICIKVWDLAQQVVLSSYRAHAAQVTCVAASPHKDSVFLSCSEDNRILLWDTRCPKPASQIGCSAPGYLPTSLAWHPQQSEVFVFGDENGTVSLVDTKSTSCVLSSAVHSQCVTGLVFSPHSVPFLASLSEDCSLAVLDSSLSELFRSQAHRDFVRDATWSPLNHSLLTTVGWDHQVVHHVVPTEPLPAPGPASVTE

Compound | IC50 ([1]; Table 4) [nM] | IC50 ([2]; Table 4) [nM] | IC50 ([1]; Table 3) [nM] | IC50 ([2]; Table 3) [nM]
Cn1ccc(-c2cn([C@@H]3O[C@H](C(=O)N4CCc5[nH]cnc5C4)[C@@H](O)[C@H]3O)c3ncnc(N)c23)n1 [Compound I-217] | 10 to 100 | 100 to 1000 |  | 
COCCN(C(=O)[C@H]1O[C@@H](n2cc(-c3ccn(C)n3)c3c(N)ncnc32)[C@H](O)[C@@H]1O)c1ccc2ccc(N3CCC3)nc2c1 [Compound I-11] |  |  | 100 to 1000 | 100 to 1000
Cn1ccc(-c2cn([C@@H]3O[C@H](C(=O)N(CC[C@H](N)C(=O)O)c4ccc5nc(N)[nH]c5c4)[C@@H](O)[C@H]3O)c3ncnc(N)c23)n1 [Compound I-39, (2S)-2-amino-4-[N-(2-amino-1H-1,3-benzodiazol-6-yl)-1-[(2S,3S,4R,5R)-5-[4-amino-5-(1-methyl-1H-pyrazol-3-yl)-7H-pyrrolo[2,3-d]pyrimidin-7-yl]-3,4-dihydroxyoxolan-2-yl]formamido]butanoic acid] | ≥ 1000 | 100 to 1000 |  | 
Cn1ccc(-c2cn([C@@H]3O[C@H](C(=O)NC4CCN(CCN)CC4)[C@@H](O)[C@H]3O)c3ncnc(N)c23)n1 [Compound I-41, (2S,3S,4R,5R)-5-[4-amino-5-(1-methyl-1H-pyrazol-3-yl)-7H-pyrrolo[2,3-d]pyrimidin-7-yl]-N-[1-(2-aminoethyl)piperidin-4-yl]-3,4-dihydroxyoxolane-2-carboxamide] | ≥ 1000 | ≥ 1000 |  | 
Cn1ccc(-c2cn([C@@H]3O[C@H](C(=O)NC4CCNCC4)[C@@H](O)[C@H]3O)c3ncnc(N)c23)n1 [Compound I-1, (2S,3S,4R,5R)-5-[4-amino-5-(1-methyl-1H-pyrazol-3-yl)-7H-pyrrolo[2,3-d]pyrimidin-7-yl]-3,4-dihydroxy-N-(piperidin-4-yl)oxolane-2-carboxamide] |  |  | ≥ 1000 | ≥ 1000
Cn1ccc(-c2cn([C@@H]3O[C@H](C(=O)N[C@H]4C[C@@H](O)C4)[C@@H](O)[C@H]3O)c3ncnc(N)c23)n1 [Compound I-214] | ≥ 1000 | ≥ 1000 |  | 
COCCN(C(=O)[C@H]1O[C@@H](n2ccc3c(N)ncnc32)[C@H](O)[C@@H]1O)c1ccc2ccc(N3CCC3)nc2c1 [Compound I-12] |  |  | ≥ 1000 | ≥ 1000
Cn1ccc(-c2cn([C@@H]3O[C@H](C(=O)NC4CCN(CC5CCC5)CC4)[C@@H](O)[C@H]3O)c3ncnc(N)c23)n1 [Compound I-223] | 10 to 100 | 10 to 100 |  | 
CN1CCC(N(CCCc2cnoc2)C(=O)[C@H]2O[C@@H](n3cc(-c4ccn(C)n4)c4c(N)ncnc43)[C@H](O)[C@@H]2O)CC1 [Compound I-152] | 100 to 1000 | 100 to 1000 |  | 
Nc1ncnc2c1c(-n1cccn1)cn2[C@H]1C[C@H](O)[C@@H](C(=O)Nc2ccc3nc(NC4CCC4)[nH]c3c2)O1 [Compound I-30] |  |  | 100 to 1000 | < 10
Cn1ccc(-c2cn([C@@H]3O[C@H](C(=O)NCc4cnccn4)[C@@H](O)[C@H]3O)c3ncnc(N)c23)n1 [Compound I-20] |  |  | ≥ 1000 | 100 to 1000
CN1CCC(N(CCCNC(=O)OCc2ccccc2)C(=O)[C@H]2O[C@@H](n3cc(-c4ccn(C)n4)c4c(N)ncnc43)[C@H](O)[C@@H]2O)CC1 [Compound I-49, benzyl N-(3-{1-[(2S,3S,4R,5R)-5-[4-amino-5-(1-methyl-1H-pyrazol-3-yl)-7H-pyrrolo[2,3-d]pyrimidin-7-yl]-3,4-dihydroxyoxolan-2-yl]-N-(1-methylpiperidin-4-yl)formamido}propyl)carbamate] | 10 to 100 | 100 to 1000 |  | 
Cn1ccc(-c2cn([C@@H]3O[C@H](C(=O)N(CCCO)C4CCNCC4)[C@@H](O)[C@H]3O)c3ncnc(N)c23)n1 [Compound I-8] |  |  | < 10 | 100 to 1000
Cn1ccc(-c2cn([C@@H]3O[C@H](C(=O)NCC4CCNCC4)[C@@H](O)[C@H]3O)c3ncnc(N)c23)n1 [Compound I-2] |  |  | 10 to 100 | 100 to 1000
Cn1ccc(-c2cn([C@@H]3O[C@H](C(=O)NCC4CCC(F)(F)CC4)[C@@H](O)[C@H]3O)c3ncnc(N)c23)n1 [Compound I-22] |  |  | 100 to 1000 | 100 to 1000
COCCCN(C(=O)[C@H]1O[C@@H](n2cc(-c3ccn(C)n3)c3c(N)ncnc32)[C@H](O)[C@@H]1O)C1CCNCC1 [Compound I-7] |  |  | 10 to 100 | ≥ 1000
CC(=O)NCCCN(C(=O)[C@H]1O[C@@H](n2cc(-c3ccn(C)n3)c3c(N)ncnc32)[C@H](O)[C@@H]1O)C1CCN(C)CC1 [Compound I-235] | 100 to 1000 | ≥ 1000 |  | 
Cn1ccc(-c2cn([C@@H]3O[C@H](C(=O)NC4CCN(C(=O)OCc5ccccc5)CC4)[C@@H](O)[C@H]3O)c3ncnc(N)c23)n1 [Compound I-225] | 100 to 1000 | 100 to 1000 |  | 
CN1CC(NC(=O)[C@H]2O[C@@H](n3cc(-c4ccn(C)n4)c4c(N)ncnc43)[C@H](O)[C@@H]2O)C1 [Compound I-216] | 10 to 100 | 100 to 1000 |  | 
Cn1ccc(-c2cn([C@@H]3O[C@H](C(=O)NCC4CCN(CCO)CC4)[C@@H](O)[C@H]3O)c3ncnc(N)c23)n1 [Compound I-19] |  |  | 10 to 100 | 100 to 1000
C#CCCCN(C(=O)[C@H]1O[C@@H](n2cc(-c3ccn(C)n3)c3c(N)ncnc32)[C@H](O)[C@@H]1O)C1CCN(C)CC1 [Compound I-59, (2S,3S,4R,5R)-5-(4-amino-5-(1-methyl-1H-pyrazol-3-yl)-7H-pyrrolo[2,3-d]pyrimidin-7-yl)-3,4-dihydroxy-N-(1-methylpiperidin-4-yl)-N-(pent-4-yn-1-yl)tetrahydrofuran-2-carboxamide] | < 10 | 100 to 1000 |  | 
CN1CCC(N(C[C@H]2CCNC2)C(=O)[C@H]2O[C@@H](n3cc(-c4ccn(C)n4)c4c(N)ncnc43)[C@H](O)[C@@H]2O)CC1 [Compound I-154] | 100 to 1000 | 100 to 1000 |  | 
CN1CCC(N(CCCNc2ccccn2)C(=O)[C@H]2O[C@@H](n3cc(-c4ccn(C)n4)c4c(N)ncnc43)[C@H](O)[C@@H]2O)CC1 [Compound I-153] | 10 to 100 | ≥ 1000 |  | 
CN1CCC(N(CCCc2nn[nH]n2)C(=O)[C@H]2O[C@@H](n3cc(-c4ccn(C)n4)c4c(N)ncnc43)[C@H](O)[C@@H]2O)CC1 [Compound I-48] | 10 to 100 | ≥ 1000 |  | 
CN(C)CCNC(=O)[C@H]1O[C@@H](n2cc(-c3ccn(C)n3)c3c(N)ncnc32)[C@H](O)[C@@H]1O [Compound I-4] |  |  | 10 to 100 | ≥ 1000
CN1CCC(N(CCCC#N)C(=O)[C@H]2O[C@@H](n3cc(-c4ccn(C)n4)c4c(N)ncnc43)[C@H](O)[C@@H]2O)CC1 [Compound I-155] | 10 to 100 | 100 to 1000 |  | 
